Tests used:
barnyardgrass [1] = assay: Test B pre-/postemergence herbicide test; assay type: in vivo, Echinochloa crus-galli
In short: (§1)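 Greenhouse pot assay with simultaneous preemergence (treated seed) and postemergence (2–18 cm seedlings) applications of surfactant-containing, non-phytotoxic solvent formulations. Response scored visually 13–15 days later on a 0–100 scale, 100 meaning complete control.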

Surinam grass = assay: Test B pre-/postemergence herbicide test; assay type: in vivo, Urochloa decumbens; settings: for Surinam Grass plant response rating: postemergence, visual rating
In short: (§2)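 Pre: seeds sown, then sprayed. Post: 1–4-leaf plants (2–18 cm) sprayed at the same time. Paddy: flooded, treated at 2-leaf stage. Formulation: non-phytotoxic solvent with surfactant. Greenhouse 13–15 days; visual 0–100 score relative to controls.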

cocklebur = assay: Test B pre-/postemergence herbicide test; assay type: in vivo, Xanthium strumarium
In short: as §1

corn = assay: Test B pre-/postemergence herbicide test; assay type: in vivo, Zea mays
In short: as §2

large crabgrass = assay: Test B pre-/postemergence herbicide test; assay type: in vivo, Digitaria sanguinalis
In short: as §2

giant foxtail = assay: Test B pre-/postemergence herbicide test; assay type: in vivo, Setaria faberi
In short: as §2

lambsquarters = assay: Test B pre-/postemergence herbicide test; assay type: in vivo, Chenopodium album; settings: for Lambsquarters plant response rating: postemergence, visual rating
In short: as §2

morningglory = assay: Test B pre-/postemergence herbicide test; assay type: in vivo, Ipomoea coccinea; settings: for Morningglory plant response rating: postemergence, visual rating
In short: as §1

pigweed = assay: Test B pre-/postemergence herbicide test; assay type: in vivo, Amaranthus retroflexus; settings: for Pigweed plant response rating: postemergence, visual rating
In short: as §2

rice [2] = assay: Test B pre-/postemergence herbicide test; assay type: in vivo, Oryza sativa; settings: preemergence
In short: as §2

velvetleaf = assay: Test B pre-/postemergence herbicide test; assay type: in vivo, Abutilon theophrasti; settings: for Velvetleaf plant response rating: postemergence, visual rating
In short: as §2

blackgrass = assay: Test B postemergence herbicide test; assay type: in vivo, Alopecurus myosuroides; settings: scale 0 (no effect) to 100 (complete control); for Blackgrass plant response rating: postemergence, visual rating
In short: (§3)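 Greenhouse test; postemergence application to plants at 1–4 leaves (2–18 cm); paddy species at 2 leaves; evaluated visually vs controls at 13–15 days; scale 0–100 (100 = complete control).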

wheat = assay: Test B postemergence herbicide test; assay type: in vivo, Triticum aestivum; design: key to Wheat plant response rating: 0 = no effect, 100 = complete control; settings: scale 0 (no effect) to 100 (complete control); for Wheat plant response rating: postemergence, visual rating
In short: (§4)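 Postemergence plants were sprayed with formulated test chemicals at 2 to 18 cm height (1- to 4-leaf stage); paddy species were grown to the 2-leaf stage. After 13 to 15 days in a greenhouse, injury was rated visually against untreated controls on a 0–100 scale (0 = no effect, 100 = complete control).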

wild oat = assay: Test B postemergence herbicide test; assay type: in vivo, Avena fatua; settings: scale 0 (no effect) to 100 (complete control); for Oat, Wild plant response rating: postemergence, visual rating
In short: as §4

rice [3] = assay: Test B flooded paddy test; assay type: in vivo, Oryza sativa; settings: 1000 g ai/ha, visual rating, scale 0 to 100 (0 no effect, 100 complete control), 13 to 15 days
In short: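 Plants grow to 1- to 4-leaf stage (2–18 cm) for postemergence spraying, or to 2-leaf stage for the paddy test. Formulated compound is applied. Greenhouse holding lasts 13–15 days. Response is scored visually relative to controls, 0 no effect to 100 complete control; a dash means no result.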

[4] = tested on: small flower umbrella sedge; assay: Test B flooded paddy test; assay type: in vivo, Cyperus difformis; settings: 1000 g ai/ha, visual rating, scale 0 to 100 (0 no effect, 100 complete control), 13 to 15 days
In short: as §3

ducksalad = assay: Test B flooded paddy test; assay type: in vivo, Heteranthera limosa; settings: 1000 g ai/ha, visual rating, scale 0 to 100 (0 no effect, 100 complete control), 13 to 15 days
In short: as §3

barnyardgrass [5] = assay: Test B flooded paddy test; assay type: in vivo, Echinochloa crus-galli; settings: 1000 g ai/ha, visual rating, scale 0 to 100 (0 no effect, 100 complete control), 13 to 15 days
In short: as §3

[6] = 500 g ai/ha, visual rating 0-100, 0 no effect, 100 complete control, preemergence
[7] = postemergence, 125 g ai/ha, visual rating, scale 0 (no effect) to 100 (complete control)
[8] = postemergence, 500 g ai/ha, visual rating, scale 0 (no effect) to 100 (complete control)
[9] = preemergence, 125 g ai/ha, 0 to 100 scale, 0 is no effect, 100 is complete control
[10] = 125 g ai/ha, scale 0 (no effect) to 100 (complete control)
[11] = 500 g ai/ha, scale 0 (no effect) to 100 (complete control)
[12] = 125 g ai/ha, 0 to 100 scale, 0 is no effect, 100 is complete control
[13] = Postemergence, 500 g ai/ha, visual rating after 13 to 15 days, scale 0 (no effect) to 100 (complete control)
[14] = Preemergence, 500 g ai/ha, scale 0 to 100
[15] = Postemergence, 500 g ai/ha, visual rating after 13 to 15 days

In the case of `C=CCN(C)C(=O)c1cccc(NC(=O)c2cc(C(C)(C)C)nn2CC)n1` [Compound 163], the “Plant response rating, Barnyardgrass” value (barnyardgrass [1]; [6]) is reported as 90, the “Barnyardgrass plant response rating” value (barnyardgrass [1]; [7]) is reported as 0 and the “Barnyardgrass plant response rating” value (barnyardgrass [1]; [8]) is reported as 0. For the same compound, the “Plant response rating, Barnyardgrass” value (barnyardgrass [1]; [9]) was 60, the “Plant response rating, Surinam Grass” value (Surinam grass; [6]) was 70 and the “Surinam Grass plant response rating” value (Surinam grass; [10]) was 0. For the same compound, the “Surinam Grass plant response rating” value (Surinam grass; [11]) was 40, the “Plant response rating, Surinam Grass” value (Surinam grass; [9]) was 50 and the “Plant response rating, Cocklebur” value (cocklebur; [6]) was 70. For the same compound, the “Cocklebur plant response rating” value (cocklebur; [7]) was 10, the “Cocklebur plant response rating” value (cocklebur; [8]) was 60 and the “Plant response rating, Cocklebur” value (cocklebur; [9]) was 70. The “Plant response rating, Corn” value (corn; [6]) was 40, the “Corn plant response rating” value (corn; [7]) was 0 and the “Corn plant response rating” value (corn; [8]) was 0. The “Plant response rating, Corn” value (corn; [9]) was 0, the “Plant response rating, Crabgrass, Large” value (large crabgrass; [6]) was 90 and the “Crabgrass, Large plant response rating” value (large crabgrass; [7]) was 20. The “Crabgrass, Large plant response rating” value (large crabgrass; [8]) was 40, the “Plant response rating, Crabgrass, Large” value (large crabgrass; [9]) was 60 and the “Plant response rating, Foxtail, Giant” value (giant foxtail; [6]) was 80. The “Foxtail, Giant plant response rating” value (giant foxtail; [7]) was 0, the “Foxtail, Giant plant response rating” value (giant foxtail; [8]) was 40 and the “Plant response rating, Foxtail, Giant” value (giant foxtail; [9]) was 20. For the same compound, the “Plant response rating, Lambsquarters” value (lambsquarters; [6]) was 100, the “Lambsquarters plant response rating” value (lambsquarters; [10]) was 50 and the “Lambsquarters plant response rating” value (lambsquarters; [11]) was 80. The “Plant response rating, Lambsquarters” value (lambsquarters; [9]) was 80, the “Plant response rating, Morningglory” value (morningglory; [6]) was 70 and the “Morningglory plant response rating” value (morningglory; [10]) was 0. The “Morningglory plant response rating” value (morningglory; [11]) was 0, the “Plant response rating, Morningglory” value (morningglory; [9]) was 60 and the “Plant response rating, Pigweed” value (pigweed; [6]) was 100. The “Pigweed plant response rating” value (pigweed; [10]) was 60, the “Pigweed plant response rating” value (pigweed; [11]) was 80 and the “Plant response rating, Pigweed” value (pigweed; [9]) was 90. The “Plant response rating, Rice” value (rice [2]; 500 g ai/ha, visual rating 0-100, 0 no effect, 100 complete control) was 80, the “Plant response rating, Rice” value (rice [2]; [12]) was 80 and the “Plant response rating, Velvetleaf” value (velvetleaf; [6]) was 90. For the same compound, the “Velvetleaf plant response rating” value (velvetleaf; [10]) was 40, the “Velvetleaf plant response rating” value (velvetleaf; [11]) was 80 and the “Plant response rating, Velvetleaf” value (velvetleaf; [9]) was 70. The “Blackgrass plant response rating” value (blackgrass; 125 g ai/ha) was 10, the “Blackgrass plant response rating” value (blackgrass; 500 g ai/ha) was 50 and the “Wheat plant response rating” value (wheat; 500 g ai/ha) was 10. For the same compound, the “Oat, Wild plant response rating” value (wild oat; 125 g ai/ha) was 10, the “Oat, Wild plant response rating” value (wild oat; 500 g ai/ha) was 30 and the “Rice plant response rating” value (rice [3]) was 60. For the same compound, the “Sedge, Umbrella plant response rating” value [4] was 70, the “Ducksalad plant response rating” value (ducksalad) was 80 and the “Barnyardgrass plant response rating” value (barnyardgrass [5]) was 70.

`CCn1nc(C(C)(C)C)cc1C(=O)Nc1cc(C(=O)OC(C)C)c(OC)cc1F` [Compound 77] was tested, and the “Plant response rating, Barnyardgrass” value (barnyardgrass [1]; [13]) was 0, the “Barnyardgrass plant response rating” value (barnyardgrass [1]; [14]) was 70 and the “Barnyardgrass plant response rating” value (barnyardgrass [1]; [7]) was 0. The “Plant response rating, Barnyardgrass” value (barnyardgrass [1]; [9]) was 0, the “Plant response rating, Surinam Grass” value (Surinam grass; [13]) was 20 and the “Surinam Grass plant response rating” value (Surinam grass; [10]) was 0. For the same compound, the “Plant response rating, Surinam Grass” value (Surinam grass; [9]) was 0, the “Plant response rating, Cocklebur” value (cocklebur; [13]) was 0 and the “Cocklebur plant response rating” value (cocklebur; [14]) was 0. The “Cocklebur plant response rating” value (cocklebur; [7]) was 0, the “Plant response rating, Cocklebur” value (cocklebur; [9]) was 0 and the “Plant response rating, Corn” value (corn; [13]) was 10. The “Corn plant response rating” value (corn; [14]) was 40, the “Corn plant response rating” value (corn; [7]) was 10 and the “Plant response rating, Corn” value (corn; [9]) was 0. The “Plant response rating, Crabgrass, Large” value (large crabgrass; [13]) was 40, the “Crabgrass, Large plant response rating” value (large crabgrass; [14]) was 80 and the “Crabgrass, Large plant response rating” value (large crabgrass; [7]) was 0. For the same compound, the “Plant response rating, Crabgrass, Large” value (large crabgrass; [9]) was 0, the “Plant response rating, Foxtail, Giant” value (giant foxtail; [13]) was 40 and the “Foxtail, Giant plant response rating” value (giant foxtail; [14]) was 60. The “Foxtail, Giant plant response rating” value (giant foxtail; [7]) was 0, the “Plant response rating, Foxtail, Giant” value (giant foxtail; [9]) was 0 and the “Plant response rating, Lambsquarters” value (lambsquarters; [13]) was 90. The “Lambsquarters plant response rating” value (lambsquarters; [10]) was 50, the “Plant response rating, Lambsquarters” value (lambsquarters; [9]) was 60 and the “Plant response rating, Morningglory” value (morningglory; [13]) was 70. For the same compound, the “Morningglory plant response rating” value (morningglory; [10]) was 0, the “Plant response rating, Morningglory” value (morningglory; [9]) was 0 and the “Plant response rating, Pigweed” value (pigweed; [13]) was 90. For the same compound, the “Pigweed plant response rating” value (pigweed; [10]) was 70, the “Plant response rating, Pigweed” value (pigweed; [9]) was 90 and the “Plant response rating, Rice” value (rice [2]; [12]) was 0. For the same compound, the “Plant response rating, Velvetleaf” value (velvetleaf; [13]) was 30, the “Velvetleaf plant response rating” value (velvetleaf; [10]) was 20 and the “Plant response rating, Velvetleaf” value (velvetleaf; [9]) was 0. The “Plant response rating, Blackgrass” value (blackgrass; [15]) was 30, the “Blackgrass plant response rating” value (blackgrass; 125 g ai/ha) was 20 and the “Plant response rating, Wheat” value (wheat; [15]) was 20. For the same compound, the “Wheat plant response rating” value (wheat; 125 g ai/ha) was 10, the “Plant response rating, Oat, Wild” value (wild oat; [15]) was 40 and the “Oat, Wild plant response rating” value (wild oat; 125 g ai/ha) was 40. The “Rice plant response rating” value (rice [3]) was 70, the “Sedge, Umbrella plant response rating” value [4] was 80 and the “Ducksalad plant response rating” value (ducksalad) was 40. For the same compound, the “Barnyardgrass plant response rating” value (barnyardgrass [5]) was 40.
